Measured values from patent publication US7211572B2 (Japan Tobacco Inc., priority 2003, dated 2007).
Where a name gives a salt, the structure may show the parent alone.

Target: T1, HIV integrase (Human immunodeficiency virus type 1 group M subtype B, UniProt P12497, F1332H)
T1 construct: HIV integrase full length gene; made in house; host or cells: Escherichia coli BL21(DE3), plasmid pET21a-INH
Assay: Determination of enzyme (HIV integrase) inhibitory activity
Assay type: biochemical
Settings: recombinant HIV integrase (F185H), strand transfer ELISA, absorbance at 450 nm
Method in brief: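 Full-length integrase with F185H, expressed in E. coli and purified, was reacted for 60 min at 37 °C with compound and biotinylated donor DNA bound to streptavidin plates. Target DNA was added for 10 min, then anti-digoxigenin-peroxidase detection at A450; IC50 from % inhibition versus enzyme-free blank.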

SMILES	IC50 [nM]
CCN(CC)C(=O)c1cn2ccn(Cc3cccc(Cl)c3)c(=O)c2c(O)c1=O [Example 156, N,N-diethyl-2-(3-chlorobenzyl)-9-hydroxy-1,8-dioxo-1,8-dihydro-2H-pyrido[1,2-a]pyrazine-7-carboxamide]	10 to 100
O=c1ccn2ccn(Cc3ccc(Br)cc3)c(=O)c2c1O [Example 157, 2-(4-bromobenzyl)-9-hydroxy-2H-pyrido[1,2-a]pyrazine-1,8-dione hydrochloride]	10 to 100
O=c1ccn2ccn(Cc3cccc(Br)c3)c(=O)c2c1O [Example 158, 2-(3-bromobenzyl)-9-hydroxy-2H-pyrido[1,2-a]pyrazine-1,8-dione hydrochloride]	10 to 100
CC(C)(C)COC(=O)c1cn2ccn(Cc3cccc(Cl)c3)c(=O)c2c(O)c1=O [Example 159, 2,2-dimethylpropyl 2-(3-chlorobenzyl)-9-hydroxy-1,8-dioxo-1,8-dihydro-2H-pyrido[1,2-a]pyrazine-7-carboxylate]	10 to 100
O=C(OC1CCCCC1)c1cn2ccn(Cc3cccc(Cl)c3)c(=O)c2c(O)c1=O [Example 160, cyclohexyl 2-(3-chlorobenzyl)-9-hydroxy-1,8-dioxo-1,8-dihydro-2H-pyrido[1,2-a]pyrazine-7-carboxylate]	10 to 100
Nc1cn2ccn(Cc3cccc(Cl)c3)c(=O)c2c(O)c1=O [Example 161, 7-amino-2-(3-chlorobenzyl)-9-hydroxy-2H-pyrido[1,2-a]pyrazine-1,8-dione hydrochloride]	10 to 100
Cc1nn(Cc2cccc(Cl)c2)c(=O)c2c(O)c(=O)ccn12 [Example 162, 2-(3-chlorobenzyl)-9-hydroxy-4-methyl-2H-pyrido[1,2-d][1,2,4]triazine-1,8-dione hydrochloride]	10 to 100
O=c1c(-c2nccs2)cn2ccn(Cc3cccc(Cl)c3)c(=O)c2c1O [Example 163, 2-(3-chlorobenzyl)-9-hydroxy-7-(thiazol-2-yl)-2H-pyrido[1,2-a]pyrazine-1,8-dione hydrochloride]	< 10
O=c1c(-c2nnc[nH]2)cn2ccn(Cc3cccc(Cl)c3)c(=O)c2c1O [Example 164, 2-(3-chlorobenzyl)-9-hydroxy-7-(4H-1,2,4-triazol-3-yl)-2H-pyrido[1,2-a]pyrazine-1,8-dione hydrochloride]	10 to 100
CC(=O)Nc1cn2ccn(Cc3cccc(Cl)c3)c(=O)c2c(O)c1=O [Example 165, N-[2-(3-chlorobenzyl)-9-hydroxy-1,8-dioxo-1,8-dihydro-2H-pyrido[1,2-a]pyrazin-7-yl]acetamide]	10 to 100
COc1cc(Cl)ccc1Cn1ccn2ccc(=O)c(O)c2c1=O [Example 166, 2-(4-chloro-2-methoxybenzyl)-9-hydroxy-2H-pyrido[1,2-a]pyrazine-1,8-dione hydrochloride]	10 to 100
NC(=O)c1cn2ccn(Cc3cccc(Cl)c3)c(=O)c2c(O)c1=O [Example 167, 2-(3-chlorobenzyl)-9-hydroxy-1,8-dioxo-1,8-dihydro-2H-pyrido[1,2-a]pyrazine-7-carboxamide]	10 to 100
COc1c(Cl)cccc1Cn1ccn2ccc(=O)c(O)c2c1=O [Example 168, 2-(3-chloro-2-methoxybenzyl)-9-hydroxy-2H-pyrido[1,2-a]pyrazine-1,8-dione hydrochloride]	10 to 100
O=c1ccn2ccn(CCOc3ccccc3Cl)c(=O)c2c1O [Example 169, 2-[2-(2-chlorophenoxy)ethyl]-9-hydroxy-2H-pyrido[1,2-a]pyrazine-1,8-dione hydrochloride]	100 to 1000
O=c1c(-c2ncccn2)cn2ccn(Cc3cccc(Cl)c3)c(=O)c2c1O [Example 170, 2-(3-chlorobenzyl)-9-hydroxy-7-(pyrimidin-2-yl)-2H-pyrido[1,2-a]pyrazine-1,8-dione hydrochloride]	10 to 100
CCCNC(=O)c1cn2ccn(Cc3cccc(Cl)c3)c(=O)c2c(O)c1=O [Example 171, N-propyl-2-(3-chlorobenzyl)-9-hydroxy-1,8-dioxo-1,8-dihydro-2H-pyrido[1,2-a]pyrazine-7-carboxamide]	< 10
CCCCNC(=O)c1cn2ccn(Cc3cccc(Cl)c3)c(=O)c2c(O)c1=O [Example 172, N-butyl-2-(3-chlorobenzyl)-9-hydroxy-1,8-dioxo-1,8-dihydro-2H-pyrido[1,2-a]pyrazine-7-carboxamide]	< 10
CC(C)CNC(=O)c1cn2ccn(Cc3cccc(Cl)c3)c(=O)c2c(O)c1=O [Example 173, N-isobutyl-2-(3-chlorobenzyl)-9-hydroxy-1,8-dioxo-1,8-dihydro-2H-pyrido[1,2-a]pyrazine-7-carboxamide]	10 to 100
COC(=O)CNC(=O)c1cn2ccn(Cc3cccc(Cl)c3)c(=O)c2c(O)c1=O [Example 174, methyl{[2-(3-chlorobenzyl)-9-hydroxy-1,8-dioxo-1,8-dihydro-2H-pyrido[1,2-a]pyrazine-7-carbonyl]amino}acetate]	10 to 100

SMILES	IC50 [nM]
CCNC(=O)c1cn2ccn(Cc3cccc(Cl)c3)c(=O)c2c(O)c1=O [Example 175, N-ethyl-2-(3-chlorobenzyl)-9-hydroxy-1,8-dioxo-1,8-dihydro-2H-pyrido[1,2-a]pyrazine-7-carboxamide]	< 10
COCCNC(=O)c1cn2ccn(Cc3cccc(Cl)c3)c(=O)c2c(O)c1=O [Example 176, N-(2-methoxyethyl)-2-(3-chlorobenzyl)-9-hydroxy-1,8-dioxo-1,8-dihydro-2H-pyrido[1,2-a]pyrazine-7-carboxamide]	10 to 100
O=C(NCCOC(=O)C(F)(F)F)c1cn2ccn(Cc3cccc(Cl)c3)c(=O)c2c(O)c1=O [Example 177, 2-{[2-(3-chlorobenzyl)-9-hydroxy-1,8-dioxo-1,8-dihydro-2H-pyrido[1,2-a]pyrazine-7-carbonyl]amino}ethyl trifluoroacetate]	10 to 100
O=C(NCCO)c1cn2ccn(Cc3cccc(Cl)c3)c(=O)c2c(O)c1=O [Example 178, N-(2-hydroxyethyl)-2-(3-chlorobenzyl)-9-hydroxy-1,8-dioxo-1,8-dihydro-2H-pyrido[1,2-a]pyrazine-7-carboxamide]	10 to 100
O=c1ccn2ccn(Cc3cccc(Cl)c3O)c(=O)c2c1O [Example 179, 2-(3-chloro-2-hydroxybenzyl)-9-hydroxy-2H-pyrido[1,2-a]pyrazine-1,8-dione hydrochloride]	10 to 100
O=C(NCc1ccccc1)c1cn2ccn(Cc3cccc(Cl)c3)c(=O)c2c(O)c1=O [Example 180, N-benzyl-2-(3-chlorobenzyl)-9-hydroxy-1,8-dioxo-1,8-dihydro-2H-pyrido[1,2-a]pyrazine-7-carboxamide]	< 10
O=C(NCC(F)(F)F)c1cn2ccn(Cc3cccc(Cl)c3)c(=O)c2c(O)c1=O [Example 181, N-(2,2,2-trifluoroethyl)-2-(3-chlorobenzyl)-9-hydroxy-1,8-dioxo-1,8-dihydro-2H-pyrido[1,2-a]pyrazine-7-carboxamide]	10 to 100
CCCCN(C)C(=O)c1cn2ccn(Cc3cccc(Cl)c3)c(=O)c2c(O)c1=O [Example 182, N-butyl-N-methyl-2-(3-chlorobenzyl)-9-hydroxy-1,8-dioxo-1,8-dihydro-2H-pyrido[1,2-a]pyrazine-7-carboxamide]	10 to 100
COCCN(C)C(=O)c1cn2ccn(Cc3cccc(Cl)c3)c(=O)c2c(O)c1=O [Example 183, N-(2-methoxyethyl)-N-methyl-2-(3-chlorobenzyl)-9-hydroxy-1,8-dioxo-1,8-dihydro-2H-pyrido[1,2-a]pyrazine-7-carboxamide]	10 to 100
O=C(c1cn2ccn(Cc3cccc(Cl)c3)c(=O)c2c(O)c1=O)N1CCCC1 [Example 184, 2-(3-chlorobenzyl)-9-hydroxy-7-(pyrrolidine-1-carbonyl)-2H-pyrido[1,2-a]pyrazine-1,8-dione]	10 to 100
O=C(c1cn2ccn(Cc3cccc(Cl)c3)c(=O)c2c(O)c1=O)N1CCOCC1 [Example 185, 2-(3-chlorobenzyl)-9-hydroxy-7-(morpholine-4-carbonyl)-2H-pyrido[1,2-a]pyrazine-1,8-dione]	10 to 100
COc1cc(Cn2ccn3ccc(=O)c(O)c3c2=O)ccc1Cl [Example 186, 2-(4-chloro-3-methoxybenzyl)-9-hydroxy-2H-pyrido[1,2-a]pyrazine-1,8-dione hydrochloride]	10 to 100
COC(=O)Cc1cn2ccn(Cc3cccc(Cl)c3)c(=O)c2c(O)c1=O [Example 187, methyl [2-(3-chlorobenzyl)-9-hydroxy-1,8-dioxo-1,8-dihydro-2H-pyrido[1,2-a]pyrazin-7-yl]acetate]	10 to 100
O=c1c(-c2nnn[nH]2)cn2ccn(Cc3cccc(Cl)c3)c(=O)c2c1O [Example 188, 2-(3-chlorobenzyl)-9-hydroxy-7-(1H-tetrazol-5-yl)-2H-pyrido[1,2-a]pyrazine-1,8-dione hydrochloride]	10 to 100
CNC(=O)Cc1cn2ccn(Cc3cccc(Cl)c3)c(=O)c2c(O)c1=O [Example 189, 2-[2-(3-chlorobenzyl)-9-hydroxy-1,8-dioxo-1,8-dihydro-2H-pyrido[1,2-a]pyrazin-7-yl]-N-methylacetamide]	10 to 100
CN(C)C(=O)Cc1cn2ccn(Cc3cccc(Cl)c3)c(=O)c2c(O)c1=O [Example 190, 2-[2-(3-chlorobenzyl)-9-hydroxy-1,8-dioxo-1,8-dihydro-2H-pyrido[1,2-a]pyrazin-7-yl]-N,N-dimethylacetamide]	10 to 100
O=C(O)Cc1cn2ccn(Cc3cccc(Cl)c3)c(=O)c2c(O)c1=O [Example 191, [2-(3-chlorobenzyl)-9-hydroxy-1,8-dioxo-1,8-dihydro-2H-pyrido[1,2-a]pyrazin-7-yl]acetic acid]	10 to 100
CC(O)CNC(=O)c1cn2ccn(Cc3cccc(Cl)c3)c(=O)c2c(O)c1=O (stereo not shown) [Example 192, N-(2-hydroxypropyl)-2-(3-chlorobenzyl)-9-hydroxy-1,8-dioxo-1,8-dihydro-2H-pyrido[1,2-a]pyrazine-7-carboxamide hydrochloride]	10 to 100
